Measured values published in patent US20180118801A1, “COMPOSITIONS AND METHODS FOR DIAGNOSING AND TREATING AUTOIMMUNE DISEASES” (THE REGENTS OF THE UNIVERSITY OF COLORADO, a body corporate, priority 2015, published 2018).
“Also recorded” adds a separate entry of the source.

Experiments:
Experiment in all cases: T cell antigen assay, IFN-gamma ELISA response of T cell clone
Type in all cases: cell-based, NOD mouse
T cell clone BDC-6.9 = details: for IFN-gamma T cell response to peptides: BDC-6.9, synthetic peptides; for T cell recognition/activation by HIP sequence (IFN-gamma response): BDC-6.9 (same TCR as BDC-9.3)
Experimental: (§1) The antigenicity of biochemical fractions, peptides, or reaction mixtures was assessed through the IFN-y responses of T-cell clones. In 96-well microtiter plates, assay cultures contained 2×10^4 responder T cells, 2.5×10^4 NOD peritoneal exudate cells as antigen-presenting cells, and -cell antigen. ELISA (BD Biosciences) was used to determine IFN-gamma production by the responder T cells. Aliquots of cell extracts (β-Mem) were used as positive controls throughout the experiments. Test wells contained biochemical fractions, peptides, or reaction mixtures. Synthetic peptides (>95%) were obtained from CHI Scientific.
(§2) For the synthesis of a HIP peptide through chemical crosslinking of an N-terminally acetylated “left peptide” and an unmodified “right peptide”, a two-step crosslinking procedure was adopted. To ensure water solubility of peptides, “left peptides” (>85%, CHI-Scientific) were N-terminally extended and “right peptides” (>85%, CHI-Scientific) were C-terminally extended through the addition of two arginine residues separated by an alanine residue from the core amino acid sequences. A total of 10 μl “left peptide” (10 mM: SEQ ID NO: 177 Acetyl-RRAHLVEAL. SEQ ID NO: 178 Acetyl-RRALVEALY, SEQ ID NO: 179 Acetyl-RRAVEALYL, SEQ ID NO. 180 Acetyl-RRAGDLQTL, SEQ ID NO: 181 Acetyl-RRADLQTLA, SEQ ID NO: 182 Acetyl-RRALQTLAL, SEQ ID NO: 183 Acetyl-RRAQTLALE, or SEQ ID NO: 184 Acetyl-RRATLALEV) was added to 74.5 μl reaction buffer (20 mM MES, 150 mM NaCl) in a 1.5 ml eppendorf tube, followed by the addition of a carbodiimide, such as, for example, 1.5 μl freshly prepared 500 mM 1-Ethyl-3-[3-dimethylaminopropyl]carbodiimide hydrochloride (EDC) and 1.5 μl 1000 mM N-hydroxysuccinimide (NHS). After 15 min of incubation at room temperature, a reducing agent was added, for example, […] of DTT (1000 mM) were added to quench residual EDC. Following another 15 min of incubation at room temperature, […] of “right peptide” (10 mM: SEQ ID NO: 185 KCNTATARR, SEQ ID NO: 186 NAARDPARR, SEQ ID NO: 187 TPVRSGTARR, or SEQ ID NO: 188 WSRMDARR) were added. Reaction mixtures were incubated for 16 h at 37° C., prior to the direct addition of […] to the T cell assay plates (see for example U.S. Pat. No. 5,589,458). ELISA was used to measure IFN-gamma T cell responses to individual HIP reaction mixtures. For each T cell clone, the ELISA absorbance values to all peptides were averaged and the standard deviation was calculated. If the absorbance value toward an individual HIP was three times the standard deviation (3×sd) above the average signal, the response toward the peptide was classified as positive.

T cell clone BDC-9.3 = details: for IFN-gamma T cell response to peptides: BDC-9.3, exemplifying the IAPP-reactive clones, synthetic peptides, FIG. 4B; for T cell recognition/activation by HIP sequence (IFN-gamma response): BDC-9.3, synthetic HIP library screen (FIG. 2E)
Experimental: as §1, §2

[1] = test system: CD4 T cell clone BDC-9.46; details: synthetic HIP library screen (FIG. 2D)
Experimental: as §1, §2

CD4 T cell clone BDC-2.5 = details: for T cell recognition/activation by HIP sequence (IFN-gamma response): BDC-2.5, synthetic HIP library screen, positive if ELISA absorbance 3×sd above average (FIG. 2B); for IFN-gamma T cell response to peptides: BDC-2.5, illustrating the WE14-reactive clones, synthetic peptides, FIG. 4A
Experimental: as §1, §2

[2] = test system: CD4 T cell clone BDC-10.1; details: synthetic HIP library screen (FIG. 2C)
Experimental: as §1, §2

IAPP2-HIP: HIP spanning full-length Ins2 C-Peptide fragment ending in LQTLAL on the N-terminal side and the entire IAPP2 sequence on the C-terminal side (EVEDPQVAQLELGGGPGAGDLQTLALNAAGDPNRESLDFLLV)
IFN-gamma T cell response to peptides (T cell clone BDC-6.9): low nanomolar concentrations | IFN-gamma T cell response to peptides (T cell clone BDC-9.3): low nanomolar concentrations

LQTLALNAARD [SEQ ID NO: 197]
T cell recognition/activation by HIP sequence (IFN-gamma response) (T cell clone BDC-6.9): recognized | T cell recognition/activation by HIP sequence (IFN-gamma response) (T cell clone BDC-9.3): recognized

DLQTLALNAAR [Sequence 2]
T cell recognition/activation by HIP sequence (IFN-gamma response) (T cell clone BDC-6.9): recognized | T cell recognition/activation by HIP sequence (IFN-gamma response) (T cell clone BDC-9.3): recognized

LQTLALWSRMD [SEQ ID NO: 199]
T cell recognition/activation by HIP sequence (IFN-gamma response) [1]: activate | T cell recognition/activation by HIP sequence (IFN-gamma response) (CD4 T cell clone BDC-2.5): activate | T cell recognition/activation by HIP sequence (IFN-gamma response) [2]: activate

insulin 2 C-peptide: full length mouse insulin 2 C-peptide (EVEDPQVAQLELGGGPGAGDLQTLALEVAQQ)
IFN-gamma T cell response to peptides (T cell clone BDC-9.3): None of the clones respond | IFN-gamma T cell response to peptides (CD4 T cell clone BDC-2.5): None of the clones respond | IFN-gamma T cell response to peptides (CD4 T cell clone BDC-2.5; listed as Ins2 C-Peptide): None of the clones respond | IFN-gamma T cell response to peptides (CD4 T cell clone BDC-2.5; listed as insulin C-peptide): none of the WE14-reactive T cell clones recognize

WE14-HIP: HIP spanning full-length Ins2 C-Peptide fragment ending in LQTLAL on the N-terminal side and the entire WE14 sequence on the C-terminal side (EVEDPQVAQLELGGGPGAGDLQTLALWSRMDQLAKELTAE)
IFN-gamma T cell response to peptides (CD4 T cell clone BDC-2.5): low nanomolar concentrations

insulin 2 C-peptide fragment ending with the amino acid sequence SEQ ID NO: 192 DLQTLAL: insulin 2 C-peptide fragment ending with DLQTLAL (EVEDPQVAQLELGGGPGAGDLQTLAL)
IFN-gamma T cell response to peptides (T cell clone BDC-9.3): None of the clones respond | IFN-gamma T cell response to peptides (CD4 T cell clone BDC-2.5): None of the clones respond

WE14: naturally occurring peptide cleavage product of chromogranin A (ChgA) (WSRMDQLAKELTAE)
IFN-gamma T cell response to peptides (CD4 T cell clone BDC-2.5): weakly antigenic; also recorded: poorly antigenic; also recorded: high concentrations

IAPP2: IAPP propeptide 2, naturally occurring cleavage product found in secretory granules of β-cells (NAAGDPNRESLDFLLV)
IFN-gamma T cell response to peptides (T cell clone BDC-6.9): Neither BDC-9.3 nor BDC-6.9 recognize | IFN-gamma T cell response to peptides (T cell clone BDC-9.3): Neither BDC-9.3 nor BDC-6.9 recognize; also recorded: not responsive

DLQTLALWSRM [Sequence 1]
T cell recognition/activation by HIP sequence (IFN-gamma response) [1]: recognized | T cell recognition/activation by HIP sequence (IFN-gamma response) (CD4 T cell clone BDC-2.5): recognized | T cell recognition/activation by HIP sequence (IFN-gamma response) [2]: recognized
